Read-outs that look alike come from different tables or passages of the source.
Assays:
[1] = test system: rat primary hepatocytes
[2] = test system: HepG2 cells; settings: cited from earlier work; for IC50: read-out: MMP assays IC50 (µM) qHTS-HepG2
[3] = test system: HepG2 cells; test: cells; settings: Homo sapiens; for IC50: HepG2, read-out: MMP assays IC50 (µM) HepG2; for Emax: HepG2, read-out: MMP assays efficacy (%) HepG2
[4] = test system: rat primary hepatocytes; test: MMP assay in rat primary hepatocytes; settings: for IC50: Rattus norvegicus, Hepatocyte, read-out: MMP assays IC50 (µM) Rat Hepatocytes

| Compound | MMP assays efficacy (%) Rat Hepatocytes [1] | MMP assays efficacy (%) qHTS-HepG2 [2] | IC50 [2] [µM] | IC50 [3] [µM] | Emax [3] [%] | MMP assays IC50 (µM) Rat Hepatocytes [4] | IC50 [4] [µM] | MMP assays IC50 (µM) qHTS-HepG2 [2] |
| --- | --- | --- | --- | --- | --- | --- | --- | --- |
| ClC1=C(Cl)C2(Cl)C(CBr)CC1(Cl)C2(Cl)Cl (centres unmarked) [Bromociclen] | inactive | -87±13% | 33.2 ± 3.47 | 15.5 | 47 | inactive | – | – |
| CC(C)C[C@H]1C(=O)N2CCC[C@H]2[C@]2(O)O[C@](NC(=O)[C@@H]3C=C4c5cccc6[nH]c(Br)c(c56)C[C@H]4N(C)C3)(C(C)C)C(=O)N12 [Bromocriptine] | -68±7% | -112±8% | 11.4 ± 1.58 | 21.8 | 121 | – | 13.2 ± 10.8 | – |
| O=[N+]([O-])c1ccc(O/N=C/c2cc(Br)c(O)c(Br)c2)c([N+](=O)[O-])c1 [Bromofenoxim] | -114±9% | -108±7% | 1.08 ± 0.25 | 3.98 | 100 | – | 2.18 ± 0.86 | – |
| COP(=S)(OC)Oc1cc(Cl)c(Br)cc1Cl [Bromofos] | -111±7% | -105±8% | 7.7 ± 1.63 | 8.91 | 95 | – | 22.7 ± 10.4 | – |
| CCCCCCCC(=O)Oc1c(Br)cc(C#N)cc1Br [Bromoxynil octanoate] | -38±2% | -109±13% | 15.3 ± 5.08 | 31.6 | 125 | – | 28.6 ± 22.7 | – |
| CCC/C=C/C=C/C(=O)O[C@H]1/C(=C/C(=O)OC)C[C@H]2C[C@H]([C@@H](C)O)OC(=O)C[C@H](O)C[C@@H]3C[C@H](OC(C)=O)C(C)(C)[C@](O)(C[C@@H]4C/C(=C/C(=O)OC)C[C@H](/C=C/C(C)(C)[C@]1(O)O2)O4)O3 [Bryostatin 1] | -46±21% | -105±21% | 0.01 ± 0.01 | 0.001 | 92 | – | 0.79 ± 1.07 | – |
| CCCCOC(=O)c1ccc(O)cc1 [Butylparaben] | inactive | -109±15% | 19 | 35.5 | 124 | inactive | – | – |
| Oc1c(Cl)cc(Cl)c2cccnc12 [CHLOROXINE] | inactive | -75±22% | 10.6 ± 1.22 | 9.75 | 99 | inactive | – | – |
| C=C1/C(=C\C=C2/CCC[C@]3(C)[C@@H]([C@H](C)CCCC(C)(C)O)CC[C@@H]23)C[C@@H](O)C[C@@H]1O [Calcitriol] | -37±8% | -94±17% | 14.1 ± 4.15 | 15.5 | 75 | – | 22.4 ± 7.17 | – |
| CCOc1nc2cccc(C(=O)OC(C)OC(=O)OC3CCCCC3)c2n1Cc1ccc(-c2ccccc2-c2nnn[nH]2)cc1 (centres unmarked) [Candesartan cilexetil] | inactive | -124±13% | 15.9 ± 4.62 | 11.2 | 101 | inactive | – | – |
| CCCCCc1cc(O)c2c(c1)OC(C)(C)c1ccc(C)cc1-2 [Cannabinol] | -98±2% | -124±7% | 1.68 | 1.09 | 103 | – | 21.8 | – |
| C[C@@]12C(=O)OC(=O)[C@]1(C)[C@H]1CC[C@@H]2O1 [Cantharidin] | -91±63% | -67±9% | 0.15 ± 0.08 | 0.12 | 98 | – | 0.45 ± 0.3 | – |
| N#CC(C#N)=NNc1cccc(Cl)c1 [Carbonyl cyanide chlorophenylhydrazone] | inactive | – | 0.15 ± 0.04 | 0.25 | 96 | inactive | – | – |
| CC(=O)[C@]1(O)Cc2c(O)c3c(c(O)c2[C@@H](O[C@H]2C[C@H](N)[C@H](O)[C@H](C)O2)C1)C(=O)c1c(O)cccc1C3=O [Carminomycin] | inactive | -91±17% | 1.25 ± 0.73 | 21.8 | 68 | inactive | – | – |
| O=S(=O)(Oc1ccc(Cl)cc1)c1ccc(Cl)cc1 [Chlorfenson] | -62±24% | -94±17% | 38.8 ± 25.4 | 44.7 | 88 | – | 23.7 ± 17.2 | – |
| O=C(NC(=O)c1c(F)cccc1F)Nc1cc(Cl)c(Oc2ncc(C(F)(F)F)cc2Cl)c(Cl)c1 [Chlorfluazuron] | -79±42% | -114±19% | 8.93 ± 4.57 | 12.6 | 98 | – | 29.3 ± 1.99 | – |
| CC(C)OC(=O)C(O)(c1ccc(Cl)cc1)c1ccc(Cl)cc1 [Chloropropylate] | -66±32% | -105±14% | 26.3 ± 3.64 | 44.7 | 102 | – | 43.8 ± 10.9 | – |
| Cc1ccc2c(c1N)C(=O)c1ccccc1C2=O [Compound 1-Amino-2-methylanthraquinone] | -85±28% | -82±1% | 0.64 ± 0.08 | 2.51 | 92 | – | 5.28 ± 3.3 | – |
| Oc1ccc2ccc3cccc4ccc1c2c34 [Compound 1-Hydroxypyrene] | -49±25% | -110±22% | 4.67 ± 1.95 | 7.08 | 99 | – | 33.5 ± 2.73 | – |
| Cc1ccc2ccc3cccc4ccc1c2c34 [Compound 1-Methylpyrene] | -57±10% | -112±32% | 43.2 ± 4.99 | 39.8 | 112 | – | 32.2 ± 7.36 | – |
| Oc1cccc2ccccc12 [Compound 1-Naphthol] | inactive | -104±5% | 31 ± 5.96 | 31.6 | 107 | inactive | – | – |
| O=[N+]([O-])c1ccc2ccc3cccc4ccc1c2c34 [Compound 1-Nitropyrene] | -60±24% | -99±6% | 2.01 ± 2.06 | 6.31 | 68 | – | 16.9 ± 4.77 | – |
| CC(=O)Nc1ccc2c(c1)Cc1ccccc1-2 [Compound 2-Acetylaminofluorene] | inactive | -63±5% | 36.3 ± 10.5 | 31.6 | 46 | inactive | – | – |
| Nc1ccc2cc3ccccc3cc2c1 [Compound 2-Aminoanthracene] | -51±35% | -72±12% | 4.71 ± 1.92 | 3.55 | 73 | – | 0.18 ± 0.2 | – |
| CCc1ccccc1O [Compound 2-Ethylphenol] | inactive | inactive | – | 15.8 | 72 | inactive | – | inactive |

— article PMC6112376, “Comprehensive Analyses and Prioritization of Tox21 10K Chemicals Affecting Mitochondrial Function by in-Depth Mechanistic Studies” (Environmental Health Perspectives, 2018)
